Here are results for 35 compounds from a melting point compilation (Tetko et al.; mined from patent text by program, amines drawn as free bases though some values may be those of a salt).

One may read the melting point as the temperature, or range, at which the solid turns liquid.

The compound `O=C(O)c1cc([N+](=O)[O-])cc2c1Nc1cc(-c3ccccc3)ccc1O2` returned a melting point of more than 250 °C.

On to `CCCC(=O)C(=CNc1ccccc1OC)C(=O)OCC`, for which the melting point fell in the range of 74 to 76 °C.

On to `O=C(NCCc1ccccc1)c1ccc(N2CCOCC2)nc1`, for which the melting point was 163 to 165 °C.

The compound `Cc1sc(N)c(C#N)c1Cl` returned a melting point of 158 °C.

In the case of `O=S(=O)(Nc1ccc2c(OCc3ccc(OC(F)(F)F)cc3)cccc2c1)C(F)(F)F`, the melting point was in the range of 80 to 82 °C.

Regarding `CCOC(=O)C[C@@H](C)NC(=O)N[C@H]1CCN(c2ccc(C#N)cc2)C1=O`, the melting point was in the range of 178 to 179 °C.

`CCn1ncc2c3[nH]cnc(=O)c3cnc21` yielded a melting point of 320 to 322 °C.

`O=C(O)c1ccc2c(c1)CCc1ccc(Br)cc1C2=O` returned a melting point of 218 to 219 °C.

In the case of `CC(O)CNc1cc(Cl)cc(NCC(C)O)c1[N+](=O)[O-]` (stereo not given), the melting point was determined as 170 °C.

For the compound `Cc1cc(C)cc(-c2c(O)c3ccc(Cl)cc3[nH]c2=O)c1`, the melting point is 369 °C.

Compound `Nc1nc2ccccc2n(-c2ccc(Cl)cc2)c1=O` had a melting point of 254 to 255 °C.

In turn, `COc1ccc(-c2cc(C(F)F)nn2-c2ccc(S(N)(=O)=O)c(F)c2)cc1F` gave a melting point of 167 to 169 °C.

Take `Cc1cccc2c(=O)cc(O)c(=O)[nH]c12`: the melting point was in the range of 184 to 186 °C.

The compound `N#CC(C(=O)c1cc(F)c(Cl)cc1Cl)=C(N)C1CC1` returned a melting point of 95 °C.

In the case of `COc1cccc([C@H]2O[C@H](CC(=O)NCc3ccc(C(=O)O)o3)C(=O)N(CC(C)(C)CO)c3ccc(Cl)cc32)c1OC`, the melting point fell in the range of 128 to 131 °C.

As for `CCCCCCCS(=O)(=O)Oc1c(I)cc(I)cc1I`, the melting point lay in the range of 78 to 80 °C.

`COC(=O)Cc1cc(Br)c(S(=O)(=O)c2ccc(O)c(C(C)C)c2)c(Br)c1` had a melting point of 159 to 160 °C.

In turn, `COc1ccc(S(=O)(=O)N(CCNC(C)=O)c2ccc(C)cc2Cc2c(F)cccc2F)cc1OC` showed a melting point of 79.7 °C.

In turn, `O=C(Nc1ccccc1)c1ccc(F)c2c1CC(N(CCCc1c[nH]c3ccc(F)cc13)C1CCC1)CO2` (stereo not given) displayed a melting point of 136 °C.

Turning to `Cc1c(F)c(N2CCC(n3ccnn3)CC2)c(F)c2c1c(=O)c(C(=O)O)cn2C1CC1`, the melting point fell in the range of 261 to 263 °C.

The compound `O=C(Nc1ccccc1)c1cc(Oc2ccc(C(F)(F)F)cc2Cl)ccc1[N+](=O)[O-]` gave a melting point of 190 to 194 °C.

Take `CCONC(=O)c1cccc(-c2nc3ccccc3c(=O)o2)c1`: the melting point was 179 to 183 °C.

For `O=c1n(-c2cc(O)c(Cl)cc2F)nc2ccc(Cl)cn12`, the melting point is more than 210 °C.

Compound `CN(C)C(=O)NCCNCC(O)COc1ccc(OCCOCC2CC2)cc1` (stereo not given) showed a melting point of 86 °C.

On to `COc1ccc(C(=O)c2ccccc2)cc1C(=O)O`, for which the melting point stood at 150 °C.

`CCCCC(=O)c1c(-c2ccc3cc(O)ccc3c2)oc2ccccc12` showed a melting point of 148 to 149 °C.

With `CNC(=O)C1=CC(CF)(CF)Oc2ccc(Br)cc21`, the melting point lay in the range of 187 to 188 °C.

Regarding `O=[N+]([O-])c1cnn(CC(O)CCl)n1` (stereo not given), the melting point is 38 to 38.5 °C.

As to `CC(C(=O)O)c1ccc(-c2ccc(Cl)cc2F)c(O)c1` (stereo not given), the melting point was in the range of 145 to 149 °C.

`Cc1cc(CCCCC(=O)O)no1`: the melting point fell in the range of 58 to 60 °C.

In turn, `COc1cc(-c2cccc(C=C3SC(N4CCOCC4)=NC3=O)c2)cc(C23CC4CC(CC(C4)C2)C3)c1` displayed a melting point of 234 to 238 °C.

`COc1ccc(-c2cc(OC3SCC(OC(C)=O)C(OC(C)=O)C3OC(C)=O)ccn2)cc1` (stereo not given): the melting point lay in the range of 113 to 114 °C.

Compound `C=CC(=O)N(c1cc(-n2ncc(=O)n(C)c2=O)c(F)cc1C#N)S(=O)(=O)CC` came in with a melting point of 118 °C.

In turn, `O=C(O)c1ccc(OCCCO/N=C/c2cn(Cc3ccccc3)c3ccccc23)cc1O` came in with a melting point of 182 to 183 °C.

In the case of `O=C(NCc1c(F)cccc1F)c1[nH]c2ccc(Cl)cc2c1S(=O)(=O)c1ccccc1`, the melting point lay within 274 to 280 °C.
